One block for each molecule: values may come before it.
Tests used:
[1] = system: human breast cancer cells BT474; assay: In vivo antitumor effect of anti-CAPRIN-1 antibody and etoposide in BT474 cancer-bearing mice (Comparative Example 1); set-up: species or system NOD-SCID mice; conditions: etoposide alone, four times, day 55 after bearing cancer
Protocol: Next, an in vivo antitumor effect in a cancer-bearing mouse by a combined use of the anti-CAPRIN-1 antibody (anti-CAPRIN-1 humanized antibody #1) produced in Example 1 and etoposide (a topoisomerase inhibitor (topoisomerase II inhibitor) other than topotecan) was evaluated.
Specifically, the antitumor effect of the combination of the anti-CAPRIN-1 antibody and etoposide was studied using NOD-SCID mice in which human-derived cancer cells expressing CAPRIN-1 protein were subcutaneously transplanted. Human breast cancer cells BT474 were subcutaneously transplanted at 2×10^7 cells per mouse as a mixture with Matrigel (Sigma) and allowed to grow until a tumor became approximately 190 to 192 mm^3 to prepare cancer-bearing mice. […]
For a comparative control group, the same dose of the same anti-CAPRIN-1 antibody as above was administered once a week to cancer-bearing mice. […] After the start of administration, the sizes of cancers in the cancer-bearing mice were measured over time using calipers. The tumor volume of each individual was calculated according to a standard method using a calculation formula: (Length of the major axis of the tumor)×(Length of the minor axis of the tumor)^2×0.5, and the average of the treated group was calculated.

CAPRIN-1 protein = target: T1, CAPRIN-1 protein (Homo sapiens, UniProt Q14444); assay: ELISA using CAPRIN-1 protein immobilized on a plate; assay type: binding
T1 construct: made in house
T1 sequence (Q14444 1-709): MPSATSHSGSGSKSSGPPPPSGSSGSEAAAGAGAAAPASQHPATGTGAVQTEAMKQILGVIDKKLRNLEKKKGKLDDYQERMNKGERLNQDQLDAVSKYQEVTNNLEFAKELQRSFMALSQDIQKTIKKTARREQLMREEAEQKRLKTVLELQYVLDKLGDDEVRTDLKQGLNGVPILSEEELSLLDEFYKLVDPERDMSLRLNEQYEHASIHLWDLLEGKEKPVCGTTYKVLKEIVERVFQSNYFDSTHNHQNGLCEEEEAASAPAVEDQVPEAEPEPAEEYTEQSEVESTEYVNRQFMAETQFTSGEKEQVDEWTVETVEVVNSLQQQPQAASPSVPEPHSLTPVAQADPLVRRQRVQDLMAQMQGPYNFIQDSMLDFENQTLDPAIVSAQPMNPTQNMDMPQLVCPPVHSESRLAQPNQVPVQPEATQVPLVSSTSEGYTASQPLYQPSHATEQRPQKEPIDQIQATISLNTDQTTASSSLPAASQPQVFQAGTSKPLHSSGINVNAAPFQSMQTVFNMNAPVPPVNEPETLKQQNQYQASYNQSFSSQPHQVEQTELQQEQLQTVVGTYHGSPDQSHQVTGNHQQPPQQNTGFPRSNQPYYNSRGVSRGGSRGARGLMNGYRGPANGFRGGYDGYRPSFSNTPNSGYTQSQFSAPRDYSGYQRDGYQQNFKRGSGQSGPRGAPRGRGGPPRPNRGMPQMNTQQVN
Protocol: One hundred (100) μg of a human CAPRIN-1 recombinant protein produced according to Example 3 of WO2010/016526 was mixed with an MPL+TDM adjuvant (Sigma) in an amount equivalent to that of the antigen protein. The mixture was used as an antigen solution per mouse. The antigen solution was administered intraperitoneally to 6-week-old Balb/c mice (Japan SLC Inc.) and then further administered 3 times […] every week for completion of immunization. A spleen was removed on day 3 after the final immunization and then ground between two sterilized glass slides. Spleen cells were obtained by repeating the following procedure three times: washing with PBS(−) (manufactured by Nissui Pharmaceutical Co., Ltd.), centrifuging at 1500 rpm for 10 minutes, and removing supernatant. The obtained spleen cells were mixed with mouse myeloma cell SP2/0 (purchased from ATCC) at a ratio of 10:1. The PEG solution prepared by mixing 200 μl of RPMI1640 medium containing 10% FBS heated at 37° C. and 800 μl of PEG1500 (Boehringer) was added to the cells. The solution was incubated for 5 minutes for cell fusion. Centrifugation was performed at 1700 rpm for 5 minutes to remove supernatants. […] Absorbance at 450 nm and absorbance at 595 nm were measured using an absorption spectrometer. As a result, a plurality of hybridomas producing antibodies with high absorbances were selected. […]

Molecule: COc1cc([C@@H]2c3cc4c(cc3[C@@H](O[C@@H]3O[C@@H]5CO[C@@H](C)O[C@H]5[C@H](O)[C@H]3O)[C@H]3COC(=O)[C@H]23)OCO4)cc(OC)c1O [etoposide]
tumor volume, assuming that the tumor volume of the negative control was 100% ([1]; high dose 15 mg/kg once every four days): 79%
tumor volume, assuming that the tumor volume of the negative control was 100% ([1]; low dose 5 mg/kg once every four days): 92%

reactivity with CAPRIN-1 protein (CAPRIN-1 protein): exhibiting reactivity
B1: (ab): mouse monoclonal antibody against CAPRIN-1 described in WO2013/125630, heavy-chain variable region SEQ ID NO: 114, light-chain variable region SEQ ID NO: 115 (antibody, listed as Mus musculus, V domains shown)
VH: GPELVKPGASVKMSCKASGYTFTSYVMHWVKQKPGQGLEWIGYINPYNDGTKYNEKFKGKATLTSDKSSSTAYMELSSLTSEDSAVYYCARRYYYGSSGGYFDVWAQDHVRT
VL: DVQITQSPSYLAASPGETITINCRASKSISKYLAWYQEKPGKTNKLLIYSGSTLQSGIPSRFSGSGSGTDFTLTISSLEPEDFAMYYCQQHNEYPYTFGGGTKLEIKR
